Read-outs that look alike come from different tables or passages of the source. Marks after values point to notes of the source that are not given here.
System: A. flavus 3357
Experiment: Heat-sensitizing antimicrobial bioassay (MFC) in A. flavus 3357
Assay type: cell-based, Aspergillus flavus
Settings: for MFC: read-out: minimum fungicidal concentration (MFC; >99.999% fungal death)
Procedure: Antimicrobial bioassay: The heat-sensitizing effect of twenty-eight compounds (phenolic derivatives, alkyl gallates, other food additives) (0.025, 0.050, 0.075, 0.100, 0.200, 0.300, 0.400, 0.500, 0.600 or 0.700 mM) and six drugs/fungicides (1, 2, 4, 8, 16, 32, 64 ppm) (Table 2) were examined using A. flavus 3357. Two hundred μL of fungal spores (1.5×10^5 to 2.1×10^5 CFU) dispersed in PBS was transferred into individual microfuge tube (1.5 mL vol.), where (1) “control” tube contained DMSO only, while (2) “treatment” tube contained test chemical/drug at respective concentration. The tubes were then treated with mild heat (57.5° C.) or maintained at room temperature (RT; 22.0° C.) for 90 seconds. After treatments, entire volume (200 μL) from each microfuge tube was spread onto fresh recovery PDA, and plates were incubated at respective temperatures. Fungal growth/survival was monitored after 48 hrs of incubation.
As described in A. flavus 3357 test (see above), microfuge tubes were treated with mild heat (57.5° C.) or maintained at RT (22.0° C.) (90 seconds). After heat treatments, entire volume (200 μL) from each microfuge tube was spread onto fresh recovery LB agar (for bacteria) or PDA (for fungi), and plates were incubated at the optimum temperature for respective microorganisms (i.e., 35° C. for Aspergillus, 37° C. for E. coli, 28° C. for Penicillium/A. tumefaciens, respectively). The growth/survival of test microorganisms were monitored after 48 to 72 hrs of incubation.
Determination of optimum temperature and time duration for screening heat sensitizers in A. flavus 3357: For the determination of the optimum temperature and time points for screening heat sensitizers, fungal (A. flavus 3357) survivability was tested by exposing fungal spores (1.5×10^5 to 2.1×10^5 CFU) to different temperatures (50, 55, 57.5, 60, 65° C.) and time points (0.5, 1.0, 1.5, 2.0, 2.5, 3.0, 3.5, 4.0, 4.5, 5.0 min).

[1] = 57.5° C. mild heat, 90 seconds, PBS
[2] = Aspergillus flavus, 3357, 0.025 h, 22.0° C. (RT), 90 seconds, PBS
[3] = Aspergillus flavus, 3357, 0.025 h, 57.5° C. mild heat, 90 seconds, PBS

Compound | MFC [2] | MFC [3] | also measured
O=Cc1ccccc1 [Benzaldehyde] | > 700 µM |  | MFC [1]: >700 µM
CCCCCCCCCOC(=O)c1cc(O)c(O)c(O)c1 [Nonyl gallate] | > 700 µM | 400 µM | MFC (22.0° C. (RT), 90 seconds, PBS): >700 µM; minimum fungicidal concentration (MFC; >99.999% fungal death) [1]: 400* μM
O=Cc1cccc(O)c1O [2,3-Dihydroxybenzaldehyde] | > 700 µM | > 700 µM | 
N#Cc1c[nH]cc1-c1cccc2c1OC(F)(F)O2 [Fludioxonil] |  |  | minimum fungicidal concentration (MFC; >99.999% fungal death) (22.0° C. (RT), 90 seconds, PBS): >64 μg/mL; ppm; minimum fungicidal concentration (MFC; >99.999% fungal death) [1]: >64 μg/mL; ppm
O=C(O)c1ccc(O)c(O)c1 [3,4-Dihydroxybenzoic acid] | > 700 µM |  | MFC [1]: >700 µM
CCCCCCCCCCCCOS(=O)(=O)[O-].[Na+] [Sodium lauryl sulfate] | > 700 µM | > 700 µM | 
COc1cc(CCC(C)=O)ccc1O [Vanillylacetone] | > 700 µM | > 700 µM | 
CCCCCCCCCCOC(=O)c1cc(O)c(O)c(O)c1 [Decyl gallate] | > 700 µM | 200 µM | MFC (22.0° C. (RT), 90 seconds, PBS): >700 µM; minimum fungicidal concentration (MFC; >99.999% fungal death) [1]: 200* μM
O=C(O)c1ccccc1O [Salicyllic acid] |  |  | MFC (Aspergillus flavus, 3357, 0.025 h): > 700 µM
Cc1cc(C)nc(Nc2ccccc2)n1 [Pyrimethanil] |  |  | minimum fungicidal concentration (MFC; >99.999% fungal death) (22.0° C. (RT), 90 seconds, PBS): >64 μg/mL; ppm; minimum fungicidal concentration (MFC; >99.999% fungal death) [1]: >64 μg/mL; ppm
COc1cc(C=O)ccc1O [Vanillin] | > 700 µM | > 700 µM | 
COC(=O)c1cc(O)c(O)c(O)c1 [Methyl gallate] | > 700 µM | > 700 µM | 
OO [Hydrogen peroxide] | > 700 µM | > 700 µM | 
CCC(C)n1ncn(-c2ccc(N3CCN(c4ccc(OCC5COC(Cn6cncn6)(c6ccc(Cl)cc6Cl)O5)cc4)CC3)cc2)c1=O (stereo not shown) [Itraconazole] |  |  | minimum fungicidal concentration (MFC; >99.999% fungal death) (22.0° C. (RT), 90 seconds, PBS): 64 μg/mL; ppm; minimum fungicidal concentration (MFC; >99.999% fungal death) [1]: >64 μg/mL; ppm
Cc1cc(C2CC2)nc(Nc2ccccc2)n1 [Cyprodinil] |  |  | minimum fungicidal concentration (MFC; >99.999% fungal death) (22.0° C. (RT), 90 seconds, PBS): >64 μg/mL; ppm; minimum fungicidal concentration (MFC; >99.999% fungal death) [1]: >64 μg/mL; ppm
O=CC=Cc1ccccc1 [Cinnamaldehyde] | > 700 µM |  | MFC [1]: >700 µM

Compound | MFC [2] | MFC [3] | also measured
COc1ccccc1O [Guaiacol] | > 700 µM | > 700 µM | 
CCCCOC(=O)c1cc(O)c(O)c(O)c1 [Butyl gallate] | > 700 µM | > 700 µM | 
O=Cc1ccccc1O [Salicylaldehyde] | > 700 µM |  | MFC [1]: >700 µM
CCOC(=O)c1cc(O)c(O)c(O)c1 [Ethyl gallate] | > 700 µM | > 700 µM | 
Cc1ccc(C(C)C)c(O)c1 [Thymol] | > 700 µM | > 700 µM | 
O=C(O)c1ccccc1 [Benzoic acid] | > 700 µM |  | MFC [1]: >700 µM
O=C(O)c1ccc(O)cc1O [2,4-Dihydroxybenzoic acid] | > 700 µM | > 700 µM | 
CC[C@H](C)C[C@H](C)CCCCCCCCC(=O)N[C@H]1C[C@@H](O)[C@@H](NCCN)NC(=O)[C@@H]2[C@@H](O)CCN2C(=O)[C@H]([C@H](O)CCN)NC(=O)[C@H]([C@H](O)[C@@H](O)c2ccc(O)cc2)NC(=O)[C@@H]2C[C@@H](O)CN2C(=O)[C@H]([C@@H](C)O)NC1=O [Caspofungin] |  |  | minimum fungicidal concentration (MFC; >99.999% fungal death) (22.0° C. (RT), 90 seconds, PBS): >64 μg/mL; ppm; minimum fungicidal concentration (MFC; >99.999% fungal death) [1]: >64 μg/mL; ppm
O=C(O)c1cc(O)c(O)c(O)c1 [Gallate] | > 700 µM | > 700 µM | 
Cc1ccc(C=O)c(O)c1 [2-Hydroxy-4-methylbenzaldehyde] | > 700 µM | > 700 µM | 
COC(=O)N(OC)c1ccccc1COc1ccn(-c2ccc(Cl)cc2)n1 [Pyraclostrobin] |  |  | minimum fungicidal concentration (MFC; >99.999% fungal death) (22.0° C. (RT), 90 seconds, PBS): >64 μg/mL; ppm; minimum fungicidal concentration (MFC; >99.999% fungal death) [1]: >64 μg/mL; ppm
COc1cc(C(=O)O)ccc1O [Vanillic acid] | > 700 µM | > 700 µM | 
Cc1ccc(C(C)C)cc1O [Carvacrol] | > 700 µM |  | MFC [1]: >700 µM
CCCOC(=O)c1cc(O)c(O)c(O)c1 [Propyl gallate] | > 700 µM | > 700 µM | 
O=C(O)C=Cc1ccccc1 [Cinnamic acid] | > 700 µM | > 700 µM | 
COc1ccc(C=O)c(O)c1 [2-Hydroxy-4-methoxybenzaldehyde] | > 700 µM | > 700 µM | 
